Assay: Inhibitory effect on human liver uridine phosphorylase

Row | Structure (SMILES) | Ki [µM]
1 | O=C1NC(=S)NC(=O)C1Cc1cccc(OCc2ccccc2)c1 | 3.7
2 | O=C1NC(=O)C(Cc2ccc(OCc3ccccc3)cc2)C(=O)N1 | 118
3 | O=C1NC(=O)C(Cc2cccc(OCc3ccccc3)c2)C(=O)N1 | 2.3
4 | O=C1NC(=O)C(Cc2ccccc2OCc2ccccc2)C(=O)N1 | 41.8

Reference: ChEMBL document CHEMBL1131725, “Uridine phosphorylase inhibitors: chemical modification of benzyloxybenzyl-barbituric acid and its effects on urdpase inhibition” (Bioorg Med Chem Lett, 1999)
